Assays:
Type in all cases: biochemical
Pim-3 = Pim-3 (Homo sapiens (Human), UniProt Q86V86); experiment: Pim-3 kinase assay; conditions: 1 mM ATP; read-out: Pim3 IC50
Protocol: Pim-1 and Pim-3 kinase assays-20 μL reactions were run in white 384 well polystyrene plates dotted with 0.8 μL compound/DMSO in the assay buffer (50 mM Tris, pH 7.5, 0.01% Tween-20, 5 mM mgCl2, 0.01% BSA, 5 mM DTT), containing […] Biotin-labeled BAD peptide substrate (AnaSpec 62269), 1 mM ATP, and 2.5 pM (Pim-1, Invitrogen PV3503) or 1.25 pM (Pim-3, Millipore 14-738) enzyme for 1 h at 25° C. Reactions were stopped by addition of 10 μL STOP Buffer (150 mM Tris, pH=7.5, 150 mM NaCl, 75 mM EDTA, 0.01% Tween-20, 0.3% BSA,) supplemented with Phospho-Bad (Ser112) Antibody (Cell Signaling 9291) diluted 666-fold, and Streptavidin donor beads (PerkinElmer 6760002) along with Protein-A acceptor beads (PerkinElmer 6760137) at 15 μg/mL each. Supplementation of the STOP buffer with beads and stopping the reactions were done under reduced light. Prior to the stopping reactions STOP buffer with beads was preincubated for 1 h in the dark at room temperature. After stopping the reactions, plates were incubated for 1 h in the dark at room temperature before reading on a PHERAstar FS plate reader (BMG Labtech) under reduced light.

Pim-1 = Pim-1 (Homo sapiens (Human), UniProt P11309); experiment: Pim-1 kinase assay; conditions: 1 mM ATP; read-out: Pim1 IC50
Sequence of Pim-1 (P11309 whole entry): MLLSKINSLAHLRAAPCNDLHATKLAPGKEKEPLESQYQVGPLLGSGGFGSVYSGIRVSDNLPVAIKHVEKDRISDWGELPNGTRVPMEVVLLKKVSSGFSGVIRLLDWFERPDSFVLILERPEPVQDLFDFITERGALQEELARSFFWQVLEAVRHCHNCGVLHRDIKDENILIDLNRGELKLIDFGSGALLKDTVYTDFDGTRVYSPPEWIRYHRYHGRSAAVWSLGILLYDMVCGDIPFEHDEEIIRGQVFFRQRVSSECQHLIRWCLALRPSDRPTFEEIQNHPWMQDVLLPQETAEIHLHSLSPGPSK
Protocol: Supplementation of the STOP buffer with beads and stopping the reactions were done under reduced light. Prior to the stopping reactions STOP buffer with beads was preincubated for 1 h in the dark at room temperature. After stopping the reactions, plates were incubated for 1 h in the dark at room temperature before reading on a PHERAstar FS plate reader (BMG Labtech) under reduced light.

Pim-2 = Pim-2 (Homo sapiens (Human), UniProt Q9P1W9); experiment: Pim-2 kinase assay; conditions: 1 mM ATP; read-out: Pim2 IC50
Sequence of Pim-2 (Q9P1W9 whole entry): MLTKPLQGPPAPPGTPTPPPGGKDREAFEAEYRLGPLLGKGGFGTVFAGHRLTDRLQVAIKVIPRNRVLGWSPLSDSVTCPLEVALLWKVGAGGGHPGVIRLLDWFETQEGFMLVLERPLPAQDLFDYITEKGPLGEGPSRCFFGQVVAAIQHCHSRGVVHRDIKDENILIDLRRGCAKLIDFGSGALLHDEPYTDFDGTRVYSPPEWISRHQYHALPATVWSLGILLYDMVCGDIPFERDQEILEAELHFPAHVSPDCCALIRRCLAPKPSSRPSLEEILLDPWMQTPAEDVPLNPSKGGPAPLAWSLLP
Protocol: Pim-2 kinase assay—20 μL reactions were run in white 384 well polystyrene plates dotted with 0.8 μL compound/DMSO in the assay buffer (50 mM Tris, pH 7.5, 0.01% Tween-20, 5 mM mgCl2, 0.01% BSA, 5 mM DTT), containing […] Fluorescein-labeled CREBtide peptide substrate (Invitrogen PV3508), 1 mM ATP, and 1 nM enzyme (Invitrogen PV3649) for 2 h at 25° C. Reactions were stopped by addition of 10 μL TR-FRET Dilution Buffer (Invitrogen PV3574) with 30 mM EDTA and 1.5 nM LanthaScreen Tb-CREB pSer133 antibody (Invitrogen PV3566). After 30 min. incubation at room temperature, plates were read on a PHERAstar FS plate reader (BMG Labtech).

Structure (SMILES) | IC50 (Pim-3) | IC50 (Pim-1) | IC50 (Pim-2)
C[C@@H]1C[C@H](N)CN(c2c(NCc3ccc(F)c(-c4c(F)cccc4F)n3)cnc3c2CCC3O)C1 (single isomer, unassigned) [Example 87 (Diastereoisomer 1)] | 10 to 50 nM | < 10 nM | 1000 to 10000 nM
C[C@@H]1C[C@H](N)CN(c2c(NCc3ccc(F)c(-c4c(F)cccc4F)n3)cnc3c2CC[C@H]3O)C1 (single isomer, unassigned) [Example 87 (Diastereoisomer 2)] | 10 to 50 nM | < 10 nM | 100 to 1000 nM
N[C@H]1C[C@@H](C(F)(F)F)CN(c2ccncc2NCc2ccc(F)c(-c3c(F)cc(N4CCOCC4)cc3F)n2)C1 (stereo in doubt) [Example 34, 4-((3S, SR)-3-Amino-5-(trifluoromethyl)piperidin-1-yl)-N-((6-(2,6-difluoro-4-morpholinophenyl)-5-fluoropyridin-2-yl)methyl)pyridin-3-amine] | ≤ 10 nM | < 10 nM | ≤ 100 nM
C[C@H]1CN(c2ccncc2NCc2ccc(F)c(-c3c(F)cc(C4(O)CCOC4)cc3F)n2)C[C@@H](N)[C@@H]1O (stereo partly drawn) [Example 1, (3R,4R,5S)-3-Amino-1-{3-[({6-[2,6-difluoro-4-(3-hydroxytetrahydrofuran-3-yl)phenyl]-5-fluoropyridin-2-yl}methyl)amino]pyridin-4-yl}-5-methylpiperidin-4-ol] | ≤ 10 nM | < 10 nM | ≤ 100 nM
C[C@H]1CN(c2ccncc2NCc2ccc(F)c(-c3c(F)cc(C4(O)CCC4)cc3F)n2)C[C@@H](N)[C@@H]1O [Example 2, (3R,4R,5S)-3-Amino-1-(3-(((6-(2,6-difluoro-4-(1-hydroxycyclobutyl)phenyl)-5-fluoropyridin-2-yl)methyl)amino)pyridin-4-yl)-5-methylpiperidin-4-ol] | ≤ 10 nM | < 10 nM | ≤ 100 nM
C[C@H]1CN(c2ccncc2NCc2ccc(F)c(-c3c(F)cc(C4(O)CCOCC4)cc3F)n2)C[C@@H](N)[C@@H]1O [Example 3, (3R,4R,5S)-3-Amino-1-(3-(((6-(2,6-difluoro-4-(4-hydroxytetrahydro-2H-pyran-4-yl)phenyl)-5-fluoropyridin-2-yl)methyl)amino)pyridin-4-yl)-5-methylpiperidin-4-ol] | ≤ 10 nM | < 10 nM | ≤ 100 nM
C[C@@H]1C[C@H](N)CN(c2ccncc2NCc2ccc(F)c(-c3c(F)cc(C4(O)CCOC4)cc3F)n2)C1 (stereo partly drawn) [Example 4, 3-(4-{6-[({4-[(3S,5R)-3-Amino-5-methylpiperidin-1-yl]pyridin-3-yl}amino)methyl]-3-fluoropyridin-2-yl}-3,5-difluorophenyl)tetrahydrofuran-3-ol] | ≤ 10 nM | < 10 nM | ≤ 100 nM
C[C@@H]1C[C@H](N)CN(c2ccncc2NCc2ccc(F)c(-c3c(F)cc(C4(O)CCC4)cc3F)n2)C1 [Example 5, 1-(4-(6-((4-((3S,5R)-3-Amino-5-methylpiperidin-1-yl)pyridin-3-ylamino)methyl)-3-fluoropyridin-2-yl)-3,5-difluorophenyl)cyclobutanol] | ≤ 10 nM | < 10 nM | ≤ 100 nM
C[C@@H]1C[C@H](N)CN(c2ccncc2NCc2ccc(F)c(-c3c(F)cc(C4(O)CCOCC4)cc3F)n2)C1 [Example 6, 4-(4-(6-((4-((3S,5R)-3-Amino-5-methylpiperidin-1-yl)pyridin-3-ylamino)methyl)-3-fluoropyridin-2-yl)-3,5-difluorophenyl)tetrahydro-2H-pyran-4-ol] | ≤ 10 nM | < 10 nM | ≤ 100 nM
N[C@H]1C[C@@H](C(F)(F)F)CN(c2ccncc2NCc2ccc(F)c(-c3c(F)cc(C4(O)CCC4)cc3F)n2)C1 [Example 7, 1-(4-{6-[({4-[(3S,5R)-3-Amino-5-(trifluoromethyl)piperidin-1-yl]pyridin-3-yl}amino)methyl]-3-fluoropyridin-2-yl}-3,5-difluorophenyl)cyclobutanol] | ≤ 10 nM | < 10 nM | ≤ 100 nM
C[C@H]1CN(c2ccncc2NCc2ccc(F)c(-c3c(F)cc(C4(O)CC4)cc3F)n2)C[C@@H](N)[C@@H]1O [Example 8, (3R,4R,5S)-3-Amino-1-{3-[({6-[2,6-difluoro-4-(1-hydroxycyclopropyl)phenyl]-5-fluoropyridin-2-yl}methyl)amino]pyridin-4-yl}-5-methylpiperidin-4-ol] | ≤ 10 nM | < 10 nM | 100 to 1000 nM
C[C@H]1CN(c2ccncc2NCc2ccc(F)c(-c3c(F)ccc(C4(O)CC4)c3F)n2)C[C@@H](N)[C@@H]1O [Example 9, (3R,4R,5S)-3-Amino-1-(3-(((6-(2,6-difluoro-3-(1-hydroxycyclopropyl)phenyl)-5-fluoropyridin-2-yl)methyl)amino)pyridin-4-yl)-5-methylpiperidin-4-ol] | ≤ 10 nM | < 10 nM | 100 to 1000 nM
C[C@@H]1C[C@H](N)CN(c2ccncc2NCc2ccc(F)c(-c3c(F)cc(C4(O)CC4)cc3F)n2)C1 [Example 10, 1-(4-{6-[({4-[(3S,5R)-3-Amino-5-methylpiperidin-1-yl]pyridin-3-yl}amino)methyl]-3-fluoropyridin-2-yl}-3,5-difluorophenyl)cyclopropanol] | ≤ 10 nM | < 10 nM | ≤ 100 nM
C[C@@H]1C[C@H](N)CN(c2ccncc2NCc2ccc(F)c(-c3c(F)ccc(C4(O)CC4)c3F)n2)C1 [Example 11, 1-(3-(6-((4-((3S,5R)-3-Amino-5-methylpiperidin-1-yl)pyridin-3-ylamino)methyl)-3-fluoropyridin-2-yl)-2,4-difluorophenyl)cyclopropanol] | ≤ 10 nM | < 10 nM | 100 to 1000 nM
C[C@H]1CN(c2ccncc2NCc2ccc(F)c(-c3c(F)cc(CC(C)(C)O)cc3F)n2)C[C@@H](N)[C@@H]1O [Example 12, (3R,4R,5S)-3-Amino-1-{3-[({6-[2,6-difluoro-4-(2-hydroxy-2-methylpropyl)phenyl]-5-fluoropyridin-2-yl}methyl)amino]pyridin-4-yl}-5-methylpiperidin-4-ol] | ≤ 10 nM | < 10 nM | ≤ 100 nM
C[C@@H]1C[C@H](N)CN(c2ccncc2NCc2ccc(F)c(-c3c(F)cc(CC(C)(C)O)cc3F)n2)C1 [Example 13, 1-(4-{6-[({4-[(3S,5R)-3-Amino-5-methylpiperidin-1-yl]pyridin-3-yl}amino)methyl]-3-fluoropyridin-2-yl}-3,5-difluorophenyl)-2-methylpropan-2-ol] | ≤ 10 nM | < 10 nM | ≤ 100 nM
C[C@H]1CN(c2ccncc2NCc2ccc(F)c(-c3c(F)cccc3F)n2)C[C@@H](N)[C@@H]1O [Example 14, (3R,4R,5S)-3-Amino-1-[3-({[6-(2,6-difluorophenyl)-5-fluoropyridin-2-yl]methyl}amino)pyridin-4-yl]-5-methylpiperidin-4-ol] | ≤ 10 nM | < 10 nM | ≤ 100 nM
COc1cccc(F)c1-c1nc(CNc2cnccc2N2C[C@@H](N)[C@H](O)[C@@H](C)C2)ccc1F [Example 15, (3R,4R,5S)-3-Amino-1-(3-(((5-fluoro-6-(2-fluoro-6-methoxyphenyl)pyridin-2-yl)methyl)amino)pyridin-4-yl)-5-methylpiperidin-4-ol] | ≤ 10 nM | < 10 nM | 100 to 1000 nM
C[C@H]1CN(c2ccncc2NCc2ccc(F)c(-c3c(F)cncc3F)n2)C[C@@H](N)[C@@H]1O [Example 16, (3R,4R,5S)-3-Amino-5-methyl-1-(3-(((3,3′,5′-trifluoro-[2,4′-bipyridin]-6-yl)methyl)amino)pyridin-4-yl)piperidin-4-ol] | ≤ 10 nM | < 10 nM | 100 to 1000 nM
C[C@H]1CN(c2ccncc2NCc2ccc(F)c(-c3c(F)cccc3C#N)n2)C[C@@H](N)[C@@H]1O [Example 17, 2-(6-((4-((3R,4R,5S)-3-Amino-4-hydroxy-5-methylpiperidin-1-yl)pyridin-3-ylamino)methyl)-3-fluoropyridin-2-yl)-3-fluorobenzonitrile] | ≤ 10 nM | < 10 nM | 100 to 1000 nM
C[C@H]1CN(c2ccncc2NCc2ccc(F)c(-c3ccccc3F)n2)C[C@@H](N)[C@@H]1O [Example 18, (3R,4R,5S)-3-Amino-1-(3-(((5-fluoro-6-(2-fluorophenyl)pyridin-2-yl)methyl)amino)pyridin-4-yl)-5-methylpiperidin-4-ol] | ≤ 10 nM | < 10 nM | 100 to 1000 nM

From patent publication US9802918B2, “Pyridineamine compounds useful as Pim kinase inhibitors” (Incyte Corporation, priority 2015, dated 2017)
